From US8974848B1, “Ingestible product and method for enhancing the appearance and quality of teeth in-vivo” (priority 2008, dated 2015)

B1: Papain: protein-splitting enzyme, plant protease (protein, UniProt P00784 134-345, looked up)
Papain: IPEYVDWRQKGAVTPVKNQGSCGSCWAFSAVVTIEGIIKIRTGNLNEYSEQELLDCDRRSYGCNGGYPWSALQLVAQYGIHYRNTYPYEGVQRYCRSREKGPYAAKTDGVRQVQPYNEGALLYSIANQPVSVVLEAAGKDFQLYRGGIFVGPCGNKVDHAVAAVGYGPNYILIKNSWGTGWGENGYIRIKRGTGNSYGVCGLYTSSFYPVKN

Key:
[1] = accelerated coffee staining test: hydroxyapatite disks immersed in concentrated coffee with or without additive; details: 7 minutes immersion in coffee (11 grams grounds to 0.5 cups water); uniform scale, 0 = un-stained disk, 5 = coffee without additive
Description: Initially, an accelerated staining test was performed using a very strong coffee concentrate with short periods of immersion. This protocol emulates the actual oral staining process; i.e., live teeth aren't generally submerged in coffee for long periods of time since coffee is only held in the mouth for short periods of time, and the residues are rapidly diluted by saliva. In addition, coffee chemistry and pH changes rapidly due to temperature-excited oxidation—which results in significant acid formation in the first 20 minutes after brewing. As a result, coffee immersion in-vitro for times exceeding 20 minutes exposes test-items to a chemical environment which is not representative of that found in a mouth during a typical human consumption of coffee.
As one representative example of multiple tests using CHITOSAN NICOTINATE as an essential substance to prevent staining of hydroxyapatite (as found in tooth enamel), 0.02 grams of CHITOSAN NICOTINATE was placed in one of two containers of coffee brewed with 11.0 grams of coffee grounds to 0.5 cups water. Then disks made of hydroxyapatite were immersed in each container for 7 minutes time; and subsequently compared to establish the degree of staining. For meaningful comparisons of staining, the non-CHITOSAN NICOTINATE coffee was used as the dark stain standard, with an arbitrary value of 5. […]

[2] = stain reversal: coffee-stained hydroxyapatite disk immersed in brewed coffee containing additive; details: previously coffee-stained disk immersed 15 minutes in brewed coffee with additive; original stain 100%, un-stained disk 0%
Description: In addition, when a previously-coffee-stained hydroxyapatite disk was half-immersed within the brewed coffee for 15 minutes, the coffee-immersed area was lightened by 10%, where the original stain is said to be 100% and an un-stained disk is said to be 0%.
As one example of multiple tests using protein-splitting enzymes as an essential ingredient to reverse staining of hydroxyapatite, 20 mg of Papain was placed in one container of coffee, which was then brewed with 11 grams of coffee grounds to 0.5 cups water. For this series of tests, only coffee-stained hydroxyapatite disks were then immersed in the freshly brewed coffee for 15 minutes time.

Molecule | degree of staining of hydroxyapatite disks [1] | coffee-immersed stained area lightened by [2] [%]
CS(C)(=O)=O [METHYLSULFONYLMETHANE (DIMETHYLSULFONE), METHYLSULFONYLMETHANE] | 2 | –
B1 | – | 20
